The source of these data is US6858638B2, “Substituted indazoles, compositions containing them, method of production and use” (Aventis Pharma S.A., priority 2002, dated 2005).

Common to all, as to format: biochemical
One assay deals with T1, human FAK (Homo sapiens, UniProt Q05397).
T1 construct: The complete cDNA of human FAK; made in house; host or cells: baculovirus expression system (vector pFastBac HTc)
The experiment in a line: FAK autophosphorylation inhibition, time resolved fluorescence (HTRF) assay. The note with it: 10 μM (values without asterisk); for inhibition at 10 µM: read-out: FAK % inhib at 10 μM. The protocol: The inhibitory activity of the compounds on FAK is determined by measuring the inhibition of the autophosphorylation of the enzyme using a time resolved fluorescence (HTRF) assay.
The complete cDNA of human FAK, the N-terminal end of which was labeled with histidine, was cloned into a baculovirus expression vector pFastBac HTc. The protein was expressed and purified to approximately 70% homogeneity.
The kinase activity is determined by incubating the enzyme (6.6 μg/ml) with various concentrations of test compound in a 50 mM Hepes buffer, pH=7.2, containing 10 mM MgCl2, 100 μM Na3VO4 and 15 μM d'ATP for 1 hour at 37° C. The enzyme reaction is stopped by adding Hepes buffer, pH=7.0, containing […], 133 mM EDTA and 0.1% BSA, and the labeling is carried out, over 1 to 2 hours at ambient temperature, by adding to this buffer an anti-Histidine antibody labeled with XL665 and a monoclonal antibody phosphospecific for tyrosine, conjugated to europium cryptate (Eu-K). The characteristics of the two fluorophores are available in G. Mathis et al., Anticancer Research, 1997, 17, pages 3011-3014. The transfer of energy from the excited europium cryptate to the XL665 acceptor is proportional to the degree of autophosphorylation of FAK. The long-lived signal specific for XL-665 is measured in a Packard Discovery plate counter. All the assays are carried out in duplicate and the mean of the two assays is calculated. The inhibition of the FAK autophosphorylation activity with compounds of the invention is expressed as percentage inhibition compared to a control whose activity is measured in the absence of test compound. The [signal at 665 nm/signal at 620 nm] ratio is used for the calculation of the % inhibition.
A general note: TR-FRET usually uses a lanthanide donor and a delayed reading to cut background.

Another assay addresses T2, human KDR enzyme (Homo sapiens, UniProt P35968).
T2 construct: The cytoplasmic domain of the human KDR enzyme; GST; made in house; host or cells: SF21 insect cells (baculovirus)
The experiment in a line: KDR substrate (PLCγ) phosphorylation, scintillation assay. The following applies: 10 μM; for inhibition at 10 µM: read-out: KDR % inhib at 10 μM. The procedure: The inhibitory effect of the compounds is determined in an assay of substrate phosphorylation by the KDR enzyme in vitro using a scintillation technique (96-well plate, NEN).
The cytoplasmic domain of the human KDR enzyme was cloned in the form of a GST fusion into the baculovirus expression vector pFastBac. The protein was expressed in SF21 cells and purified to approximately 60% homogeneity.
The KDR kinase activity is measured in 20 mM MOPS, 10 mM MgCl2, 10 mM MnCl2, 1 mM DTT, 2.5 mM EGTA, 10 mM β-glycerophosphate, pH=7.2, in the presence of 10 mM MgCl2, 100 μM Na3VO4, 1 mM NaF. 10 μl of the compound are added to 70 μl of kinase buffer containing 100 ng of KDR enzyme at 4° C. The reaction is triggered by adding 20 μl of solution containing 2 μg of substrate (SH2-SH3 fragment of PLCγ expressed in the form of a GST fusion protein), 2 μCi γ^33P[ATP] and 2 μM cold ATP. After incubation for 1 hour at 37° C., the reaction is stopped by adding 1 volume (100 μl) of 200 mM EDTA. The incubation buffer is removed and the wells are washed three times with 300 μl of PBS. The radioactivity is measured in each well using Top Count NXT radioactivity counter (Packard).
The background noise is determined by measuring the radioactivity in four different wells containing the radioactive ATP and the substrate alone.
A control for total activity is measured in four different wells containing all the reagents (γ^33P-[ATP], KDR and PLCγ substrate) but in the absence of compound.
The inhibition of the KDR activity with the compound of the invention is expressed as percentage inhibition of the control activity determined in the absence of compound.
The compound SU5614 (Calbiochem) (1 μM) is included in each plate as an inhibition control.

For a further assay, the target named is T3, Aurora2 kinase (Homo sapiens, UniProt O14965).
T3 construct: A complete recombinant Aurora2 enzyme; His tag (N); made in house; host or cells: E. coli
T3 sequence (O14965 1-403): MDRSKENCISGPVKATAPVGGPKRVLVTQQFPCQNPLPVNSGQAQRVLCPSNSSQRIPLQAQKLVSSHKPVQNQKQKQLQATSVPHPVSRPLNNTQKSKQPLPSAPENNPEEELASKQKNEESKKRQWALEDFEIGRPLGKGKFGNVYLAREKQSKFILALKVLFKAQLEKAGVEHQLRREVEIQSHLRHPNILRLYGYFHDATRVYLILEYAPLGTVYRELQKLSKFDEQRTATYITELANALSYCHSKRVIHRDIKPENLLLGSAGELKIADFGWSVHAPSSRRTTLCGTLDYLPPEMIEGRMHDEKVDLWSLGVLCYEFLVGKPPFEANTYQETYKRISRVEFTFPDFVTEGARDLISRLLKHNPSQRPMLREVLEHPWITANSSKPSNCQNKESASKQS
The experiment in a line: Aurora2 kinase radioactivity scintillation assay using nickel chelate (NuMA substrate). The note with it: 10 μM; for inhibition at 10 µM: read-out: Aurora2 % inhib at 10 μM. The procedure:
The inhibitory effect of compounds with respect to the Aurora2 kinase is determined with a radioactivity scintillation assay using nickel chelate.
A complete recombinant Aurora2 enzyme, the N-terminal end of which was labeled with histidine, was expressed in E. coli and purified to a quality close to homogeneity.
The C-terminal fragment (Q1687-H2101) of a NuMA (Nuclear protein that associates with the Mitotic Apparatus) expressed in E. coli, and the N-terminal end of which was labeled with histidine, was purified by nickel chelate chromatography and used as substrate in the Aurora2 kinase assay. In order to determine the kinase activity, the NuMA substrate is equilibrated by chromatography on a Pharmacia PD10 column, in a buffer (50 mM Tris HCl, pH7.5, 50 mM NaCl, 10 mM MgCl2) to which 10% (v/v) of glycerol and 0.05% (w/v) of NP40 have been added.
The kinase acivitity of Aurora2 is measured by scintillation with nickel chelate (New England Nuclear, model SMP107). Each well contains 100 μl of the following solution: 0.02 μM of Aurora2; 0.5 μM of NuMA substrate; 1 μM of ATP to which 0.5 μCi of ATP-[^33P] has been added. The solutions are incubated for 30 minutes at 37° C. The assay buffer is then removed and the wells are rinsed twice with 300 μl of kinase buffer. The radioactivity is measured in each well using a Packard Model Top Count NXT device.
The background noise is deduced from the measurement of radioactivity by measuring, in duplicate, in wells containing the radioactive ATP alone containing buffered kinase treated in the same way as the other samples.
The activity of the control is determined by measuring, in duplicate, the radioactivity in the complete assay mixture (ATP, Aurora2 and the NuMA substrate) in the absence of test compound.
The inhibition of the Aurora2 with a compound of the invention is expressed as percentage inhibition of the control activity in the absence of test compound. Staurosporine is added to each plate as an inhibition control.

T1 sequence (Q05397 whole entry): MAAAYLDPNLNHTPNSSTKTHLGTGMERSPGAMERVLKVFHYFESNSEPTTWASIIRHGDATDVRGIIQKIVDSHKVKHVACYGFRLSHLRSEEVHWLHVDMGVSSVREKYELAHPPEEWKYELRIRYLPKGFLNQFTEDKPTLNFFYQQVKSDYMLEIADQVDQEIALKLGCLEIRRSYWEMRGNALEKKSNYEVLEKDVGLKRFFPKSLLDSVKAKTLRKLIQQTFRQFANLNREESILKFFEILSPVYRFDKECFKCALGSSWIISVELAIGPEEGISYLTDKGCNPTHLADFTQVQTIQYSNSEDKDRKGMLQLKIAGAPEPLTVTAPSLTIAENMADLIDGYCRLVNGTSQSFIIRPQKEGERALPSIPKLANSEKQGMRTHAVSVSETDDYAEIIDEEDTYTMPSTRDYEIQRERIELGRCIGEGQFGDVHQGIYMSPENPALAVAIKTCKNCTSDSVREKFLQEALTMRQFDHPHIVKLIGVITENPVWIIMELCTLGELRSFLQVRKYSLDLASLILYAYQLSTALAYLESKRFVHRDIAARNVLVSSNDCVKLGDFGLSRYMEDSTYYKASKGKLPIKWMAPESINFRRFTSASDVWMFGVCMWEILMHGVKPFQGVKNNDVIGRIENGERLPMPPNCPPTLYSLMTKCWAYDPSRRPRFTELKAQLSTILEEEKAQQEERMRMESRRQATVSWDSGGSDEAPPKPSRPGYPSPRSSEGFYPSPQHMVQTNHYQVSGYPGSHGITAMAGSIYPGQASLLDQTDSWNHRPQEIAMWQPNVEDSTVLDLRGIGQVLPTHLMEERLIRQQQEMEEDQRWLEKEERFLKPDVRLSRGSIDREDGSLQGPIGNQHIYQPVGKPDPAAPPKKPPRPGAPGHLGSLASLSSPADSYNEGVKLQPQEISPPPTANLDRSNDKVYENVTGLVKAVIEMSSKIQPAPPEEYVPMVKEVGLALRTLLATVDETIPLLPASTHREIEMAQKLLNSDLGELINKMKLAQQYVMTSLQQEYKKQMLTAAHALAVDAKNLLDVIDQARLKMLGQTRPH
T2 sequence (P35968 786-1356 limits assumed): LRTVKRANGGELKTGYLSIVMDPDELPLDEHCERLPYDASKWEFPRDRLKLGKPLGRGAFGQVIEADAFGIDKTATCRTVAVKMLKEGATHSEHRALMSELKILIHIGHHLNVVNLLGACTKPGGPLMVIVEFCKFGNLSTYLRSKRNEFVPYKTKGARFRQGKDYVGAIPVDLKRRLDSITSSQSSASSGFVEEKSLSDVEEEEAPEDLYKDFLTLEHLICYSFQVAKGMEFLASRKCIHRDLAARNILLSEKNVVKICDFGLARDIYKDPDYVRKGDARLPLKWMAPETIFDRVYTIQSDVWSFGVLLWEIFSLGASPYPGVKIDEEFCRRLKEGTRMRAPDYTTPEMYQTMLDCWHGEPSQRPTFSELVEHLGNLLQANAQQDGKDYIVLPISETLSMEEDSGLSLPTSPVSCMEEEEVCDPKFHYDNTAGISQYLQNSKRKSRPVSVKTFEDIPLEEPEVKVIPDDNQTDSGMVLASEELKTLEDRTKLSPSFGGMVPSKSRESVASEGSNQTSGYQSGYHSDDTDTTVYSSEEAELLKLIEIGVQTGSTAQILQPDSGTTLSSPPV

In the case of `N#Cc1ccc(S(=O)(=O)Nc2ccc3[nH]nc(-c4ccccc4)c3c2)cc1` [Example 143, 4-Cyano-N-(3-phenyl-1H-indazol-5-yl)-benzenesulfonamide], the inhibition at 10 µM at human FAK was found to be 23%; at human KDR enzyme it was 87%; at Aurora2 kinase, 64%.

Consider `O=S(=O)(Nc1ccc2[nH]nc(-c3ccccc3)c2c1)c1ccc(OC(F)(F)F)cc1` [Example 160, 4-Trifluoromethoxy-N-(3-phenyl-1H-indazol-5-yl)benzenesulfonamide], for which the values for the inhibition at 10 µM on human FAK, at human KDR enzyme and on Aurora2 kinase were 3%, 51% and 26%, respectively.

Regarding `O=S(=O)(Nc1ccc2[nH]nc(-c3ccccc3)c2c1)c1cccc(-c2ccccc2)c1` [Example 157, N-(3-Phenyl-1H-indazol-5-yl)-biphenyl-3-sulfonamide], the inhibition at 10 µM at human FAK was determined as 0%; on human KDR enzyme it was 63%; at Aurora2 kinase it was 38%.

With `COc1ccc(S(=O)(=O)Nc2ccc3[nH]nc(-c4ccccc4)c3c2)cc1` [Example 120, 4-Methoxy-N-(3-phenyl-1H-indazol-5-yl)-benzenesulfonamide], the values for the inhibition at 10 µM at human FAK, at human KDR enzyme and at Aurora2 kinase were 36%, 69% and 52%, respectively.

`CCS(=O)(=O)Nc1ccc2[nH]nc(-c3ccccc3)c2c1` [Example 127, N-(3-Phenyl-1H-indazol-5-yl)-ethanesulfonamide]: the figures for the inhibition at 10 µM at human FAK, at human KDR enzyme and on Aurora2 kinase were 32%, 63% and 78%, respectively.

In the case of `CS(=O)(=O)Nc1ccc2[nH]nc(-c3ccccc3)c2c1` [Example 124, N-(3-Phenyl-1H-indazol-5-yl)-methanesulfonamide], the inhibition at 10 µM was determined as 16% at human FAK, 55% on human KDR enzyme and 60% on Aurora2 kinase.

Take `CS(=O)(=O)c1ccccc1S(=O)(=O)Nc1ccc2[nH]nc(-c3cccc4cccnc34)c2c1` [Example 67, 2-Methylsulfonyl-N-(3-quinolin-8-yl-1H-indazol-5-yl)benzenesulfonamide]: the inhibition at 10 µM at human FAK was 79%; at human KDR enzyme it was 28%; at Aurora2 kinase it was 90%.

As to `CC(C)(C)c1ccc(S(=O)(=O)Nc2ccc3[nH]nc(-c4ccccc4)c3c2)cc1` [Example 121, 4-tert-Butyl-N-(3-phenyl-1H-indazol-5-yl)-benzenesulfonamide], the inhibition at 10 µM was 5% on human FAK, 39% on human KDR enzyme and 27% at Aurora2 kinase.

As for `CC(=O)Nc1ccc(S(=O)(=O)Nc2ccc3[nH]nc(-c4ccccc4)c3c2)cc1` [Example 118, N-[4-(3-Phenyl-1H-indazol-5-ylsulfamoyl)phenyl]acetamide], the “FAK % inhib at 10 μM” value at human FAK (10 µM) was determined as 8%. The “KDR % inhib at 10 μM” value on human KDR enzyme was determined as 53%. The “Aurora2 % inhib at 10 μM” value at Aurora2 kinase came to 52%.

Take `Cc1ccc(S(=O)(=O)Nc2ccc3[nH]nc(-c4ccccc4)c3c2)cc1` [Example 122, 4-Methyl-N-(3-phenyl-1H-indazol-5-yl)-benzenesulfonamide]: the inhibition at 10 µM on human FAK worked out at 23%; on human KDR enzyme it was 72%; at Aurora2 kinase, 65%.

As for `COc1ccc(Cl)cc1-c1n[nH]c2ccc(NS(=O)(=O)c3ccccc3S(C)(=O)=O)cc12` [Example 215, N-[3-(5-Chloro-2-methoxy-phenyl)-1H-indazol-5-yl]-2-methanesulfonyl-benzenesulfonamide], the inhibition at 10 µM at human FAK came to 97%; on human KDR enzyme it was 39%; at Aurora2 kinase, 86%.

As to `CC(=O)Nc1n[nH]c2ccc(NS(=O)(=O)c3cccc(F)c3)cc12` [Example 28, N-[5-(3-Fluorobenzenesulfonylamino)-1H-indazol-3-yl)acetamide], the inhibition at 10 µM on human FAK stood at 84%; on human KDR enzyme it was 24%; on Aurora2 kinase, 92%.

With `CS(=O)(=O)Nc1n[nH]c2ccc(NS(=O)(=O)c3cccc(F)c3)cc12` [Example 27, 3-Fluoro-N-(3-methylsulfonylamino-1H-indazol-5-yl)benzenesulfonamide], the inhibition at 10 µM at human FAK worked out at 6%; on human KDR enzyme, 13%; on Aurora2 kinase, 76%.

With `Cc1c(S(=O)(=O)Nc2ccc3[nH]nc(-c4ccccc4)c3c2)sc2ccc(Cl)cc12` [Example 153, N-(3-Phenyl-1H-indazol-5-yl)-(5-chloro-3-methyl-benzo[b]thiophene)-2-sulfonamide], the figures for the inhibition at 10 µM at human FAK, on human KDR enzyme and at Aurora2 kinase were 0%, 24% and 25%, respectively.

On to `O=S(=O)(Nc1ccc2[nH]nc(-c3cc4ccccc4[nH]3)c2c1)c1cccs1` [Example 87, {N-[3-(1H-indol-2-yl)-1H-indazol-5-yl]}thiophene-2-sulfonamide], for which the values for the inhibition at 10 µM at human FAK, at human KDR enzyme and at Aurora2 kinase were 91%, 100% and 100%, respectively.

For the molecule `O=S(=O)(/C=C/c1ccccc1)Nc1ccc2[nH]nc(-c3ccccc3)c2c1` [Example 126, (E)-2-Phenyl-N-(3-phenyl-1H-indazol-5-yl)-ethylenesulfonamide], the inhibition at 10 µM at human FAK came out at 7%; at human KDR enzyme it was 58%; at Aurora2 kinase, 50%.
